Experiment [1] deals with T1, GPR40 (Homo sapiens, UniProt O14842).
T1 construct: host or cells: CHO-K1 (Cell bank of the Chinese Academy of Sciences, GNHa 7), retrovirus infection
The experiment is described as follows: Agonist activity on CHO-K1/GPR40 cell (Fluo-4 calcium fluorescence). It is filed as cell-based. Particulars: CHO-K1 cell line expressing GPR40, calcium ion fluorescence. The text has this:
Agonist activity of compounds of the present disclosure on CHO-K1/GPR40 cell.
The following method was used to determine the agonist activity of compounds of the present disclosure on GPR40. The experiment process is described as follows:
CHO-K1/GPR40 cell (CHO-K1 cell line expressing GPR40, which was constructed using retrovirus infection method, CHO-K1/GPR40 cell for short, wherein CHO-K1 cell was purchased from Cell bank of the Chinese Academy of Sciences, catalogue number GNHa 7; GPR40 cDNA was purchased from Guangzhou FulenGen Co., Ltd, catalogue number EX-UO270-MO2) was inoculated in a 96-well plate with an inoculation density of 25000 cells/well. The cell plate was incubated at 37° C. and 5% CO2 for 24 hours. The cell culture fluid was discarded during the experiment, the cells were washed with buffer solution (1×HBSS+20 mM HEPES pH 7.4) once, 100 μL of Fluo-4 calcium ion dye was quickly added into each well, incubated at 37° C. in the dark for 30 minutes, and then at room temperature for another 30 minutes. During the determination, the baseline value of each well was read at first, and then different concentrations of drug were added to the wells (50 μL/well), and the fluorescence values were then read. The fluorescence excitation wavelength was 494 nm and the emission wavelength was 516 nm. The increase of fluorescence intensity was proportional to calcium ion level in the cells. Cell response rate of each cell/(The maximum fluorescence value−The minimum fluorescence value)/The minimum fluorescence value. EC50 values of the compounds were calculated

For experiment [2], the system named is ICR mice fed on a high fat diet. The experiment in a line: Oral glucose tolerance test (OGTT) in glucose load mice fed on a high fat diet. Type of experiment: in vivo. Particulars: blood glucose AUC, high fat diet ICR male mice. As for the experimental part: ICR mice fed on a high fat diet were used as test animals. The effect of oral administration of a single dose of the compounds of the present disclosure on oral glucose tolerance test (OGTT) of glucose load mice was studied.
Compounds of Example 1, Example 2, Example 13, Example 16, Example 18, Example 19 and Example 26
Healthy ICR male mice were purchased from SINO-BRITSH SIPPR/BK LAB. ANIMAL LTD., CO, License number: SCXK (Shanghai) 2008-0016
The test compounds were added to aqueous 0.5% CMC-Na solution to prepare the corresponding concentration suspension using microwave.
After an overnight fast for 16 hours, male mice fed on a high fat diet were weighed, and the basic blood glucose was determined. The mice were randomly divided into a Blank group and the group of each test compound of the present disclosure according to the level of blood glucose.
The dosage of administration was 20 mg/kg or 40 mg/kg, and the Blank group was administered aqueous 0.5 CMC-Na solution.
20% Glucose solution was administered 15 minutes after intragastrical administration (each mouse was administered 0.4 mL)
The compounds were administered according to the aforesaid dosage to determine the blood glucose value (−15 minutes).
At 15 minutes after administration, 20% glucose solution was administrated at a dose of 2 g/kg and the blood glucose values at 0, 15, 30, 45, 60 and 120 minutes in each mouse were determined by Roche Accu-Chek blood glucose monitoring meter.
Using Excel statistical software: the average value was calculated with avg; SD value was calculated with STDEV; and P value of difference among groups was calculated with TTEST. • AUC calculation formula: AUC=(t15min+t0min)×0.25/2+(t30min+t15min)×0.25/2+(t45min+t30min)×0.25/2+(t60min+t45min)×0.25/2+(t120min+t60min)×1/2 • Wherein t0min, t15min, t30min, t45min, t60min, t120min were blood glucose values determined at different time points.

The structures appear in SMILES notation.

The EC50 is the midpoint of the concentration-response curve.

T1 sequence (O14842 whole entry): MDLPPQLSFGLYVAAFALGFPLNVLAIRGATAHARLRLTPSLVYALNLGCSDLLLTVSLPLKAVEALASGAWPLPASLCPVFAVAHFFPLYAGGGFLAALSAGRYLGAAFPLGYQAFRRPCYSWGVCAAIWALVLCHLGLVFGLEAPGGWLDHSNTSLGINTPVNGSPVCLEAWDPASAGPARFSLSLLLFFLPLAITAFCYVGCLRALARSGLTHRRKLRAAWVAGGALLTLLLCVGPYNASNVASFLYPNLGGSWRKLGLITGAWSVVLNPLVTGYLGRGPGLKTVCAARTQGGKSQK

For the molecule `Cc1cc(O[C@@H]2CCC[C@H]2O)cc(C)c1-c1cccc(COc2ccc3c(c2)OC[C@H]3CC(=O)O)c1` (mixture of isomers) [Example 17, 2-((S)-6-((4′-(((1R,2R)/(1S,2S)-2-Hydroxycyclopentyl)oxy)-2′,6′-dimethylbiphenyl-3-yl)methoxy)-2,3-dihydrobenzofuran-3-yl)acetic acid], in experiment [1], the EC50 is 157 nM.

For `Cc1cc(OC2CCNCC2)cc(C)c1-c1cccc(COc2ccc3c(c2)OC[C@H]3CC(=O)O)c1` [Example 4, (S)-2-(6-((2′,6′-Dimethyl-4′-(piperidin-4-yloxy)biphenyl-3-yl)methoxy)-2,3-dihydrobenzofuran-3-yl)acetic acid], the EC50 in experiment [1] worked out at 81 nM.

`Cc1cc(OC2CCN(S(C)(=O)=O)CC2)cc(C)c1-c1cccc(COc2ccc3c(c2)OC[C@H]3CC(=O)O)c1` [Example 5, (S)-2-(6-((2′,6′-Dimethyl-4′-((1-(methylsulfonyl)piperidin-4-yl)oxy)biphenyl-3-yl)methoxy)-2,3-dihydrobenzofuran-3-yl)acetic acid]: the EC50 in experiment [1] was determined as 107 nM.

Regarding `Cc1cc(O[C@H]2CCN(S(C)(=O)=O)C2)cc(C)c1-c1cccc(COc2ccc3c(c2)OC[C@H]3CC(=O)O)c1` [Example 8, 2-((S)-6-((2′,6′-Dimethyl-4′-(((S)-1-(methylsulfonyl)pyrrolidin-3-yl)oxy)biphenyl-3-yl)methoxy)-2,3-dihydrobenzofuran-3-yl)acetic acid], the EC50 in experiment [1] was 88 nM.

On to `Cc1cc(OC2CCCC2)cc(C)c1-c1cccc(COc2ccc3c(c2)OC[C@H]3CC(=O)O)c1` [Example 10, (S)-2-(6-((4′-(Cyclopentyloxy)-2′,6′-dimethylbiphenyl-3-yl)methoxy)-2,3-dihydrobenzofuran-3-yl)acetic acid], for which, in experiment [1], the EC50 is 134 nM.

As to `Cc1cc(O[C@@H]2CCN(S(C)(=O)=O)C2)cc(C)c1-c1cccc(COc2ccc3c(c2)OC[C@H]3CC(=O)O)c1` [Example 11, 2-((S)-6-((2′,6′-Dimethyl-4′-(((R)-1-(methylsulfonyl)pyrrolidin-3-yl)oxy)biphenyl-3-yl)methoxy)-2,3-dihydrobenzofuran-3-yl)acetic acid], in experiment [1], the concentration for a half-maximal effect (EC50) is 73 nM.

For the molecule `Cc1cc(O[C@H]2CCOC2)cc(C)c1-c1cccc(COc2ccc3c(c2)OC[C@H]3CC(=O)O)c1C` [Example 12, 2-((S)-6-((2,2′,6′-Trimethyl-4′-(((S)-tetrahydrofuran-3-yl)oxy)biphenyl-3-yl)methoxy)-2,3-dihydrobenzofuran-3-yl)acetic acid], in experiment [1], the EC50 was 113 nM.

For `Cc1cc(OC2CNC2)cc(C)c1-c1cccc(COc2ccc3c(c2)OC[C@H]3CC(=O)O)c1` [Example 16, (S)-2-(6-((4′-(Azetidin-3-yloxy)-2′,6′-dimethylbiphenyl-3-yl)methoxy)-2,3-dihydrobenzofuran-3-yl)acetic acid], the concentration for a half-maximal effect (EC50) in experiment [1] came out at 15 nM. In addition, the “AUC decrease rate %” value in experiment [2] (single oral dose 40 mg/kg) came out at 15.72%.

With `Cc1cc(O[C@H]2CCOC2)cc(C)c1-c1ccc(F)c(COc2ccc3c(c2)OC[C@H]3CC(=O)O)c1` [Example 18, 2-((S)-6-((4-Fluoro-2′,6′-dimethyl-4′-(((S)-tetrahydrofuran-3-yl)oxy)biphenyl-3-yl)methoxy)-2,3-dihydrobenzofuran-3-yl)acetic acid], the EC50 in experiment [1] worked out at 28 nM. Moreover, the “AUC decrease rate %” value in experiment [2] (single oral dose 40 mg/kg) is listed as 44.13%.

`Cc1cc(O[C@H]2CCOC2)c(F)c(C)c1-c1cccc(COc2ccc3c(c2)OC[C@H]3CC(=O)O)c1` [Example 19, 2-((S)-6-((3′-Fluoro-2′,6′-dimethyl-4′-(((S)-tetrahydrofuran-3-yl)oxy)biphenyl-3-yl)methoxy)-2,3-dihydrobenzofuran-3-yl)acetic acid]: in experiment [1], the EC50 is 55 nM. Also, the “AUC decrease rate %” value in experiment [2] (single oral dose 40 mg/kg) worked out at 36.78%.

Take `Cc1cc(OC2CN(C(=O)[C@H](C)O)C2)cc(C)c1-c1cccc(COc2ccc3c(c2)OC[C@H]3CC(=O)O)c1` [Example 20, 2-((S)-6-((4′-((1-((S)-2-hydroxypropanoyl)azetidin-3-yl)oxy)-2′,6′-dimethylbiphenyl-3-yl)methoxy)-2,3-dihydrobenzofuran-3-yl)acetic acid]: in experiment [1], the EC50 was 140 nM.

As to `Cc1cc(OC2CN(C(=O)CO)C2)cc(C)c1-c1cccc(COc2ccc3c(c2)OC[C@H]3CC(=O)O)c1` [Example 21, (S)-2-(6-((4′-((1-(2-hydroxyacetyl)azetidin-3-yl)oxy)-2′,6′-dimethylbiphenyl-3-yl)methoxy)-2,3-dihydrobenzofuran-3-yl)acetic acid], the EC50 in experiment [1] is 131 nM.

As for `Cc1cc(OC2CCN(C(=O)[C@H](C)O)CC2)cc(C)c1-c1cccc(COc2ccc3c(c2)OC[C@H]3CC(=O)O)c1` [Example 22, 2-((S)-6-((4′-((1-((S)-2-hydroxypropanoyl)piperidin-4-yl)oxy)-2′,6′-dimethylbiphenyl-3-yl)methoxy)-2,3-dihydrobenzofuran-3-yl)acetic acid], the half-maximal effective concentration (EC50) in experiment [1] turned out to be 77 nM.

As to `COC(=O)N1CCC(Oc2cc(C)c(-c3cccc(COc4ccc5c(c4)OC[C@H]5CC(=O)O)c3)c(C)c2)CC1` [Example 23, (S)-2-(6-((4′-((1-(methoxycarbonyl)piperidin-4-yl)oxy)-2′,6′-dimethylbiphenyl-3-yl)methoxy)-2,3-dihydrobenzofuran-3-yl)acetic acid], the EC50 in experiment [1] worked out at 141 nM.

Consider `Cc1cc(O[C@@H]2CC[C@H](O)[C@@H]2O)cc(C)c1-c1cccc(COc2ccc3c(c2)OC[C@H]3CC(=O)O)c1` [Example 25, 2-((S)-6-((4′-(((1R,2S,3S)-2,3-dihydroxycyclopentyl)oxy)-2′,6′-dimethylbiphenyl-3-yl)methoxy)-2,3-dihydrobenzofuran-3-yl)acetic acid], for which, in experiment [1], the EC50 is 31 nM.

With `Cc1cc(O[C@@H]2CCOC2)cc(C)c1-c1ccc(F)c(COc2ccc3c(c2)OC[C@H]3CC(=O)O)c1` [Example 26, 2-((S)-6-((4-fluoro-2′,6′-dimethyl-4′-(((R)-tetrahydrofuran-3-yl)oxy)biphenyl-3-yl)methoxy)-2,3-dihydrobenzofuran-3-yl)acetic acid], in experiment [1], the EC50 worked out at 52 nM. The “AUC decrease rate %” value in experiment [2] (single oral dose 40 mg/kg) was determined as 26.06%.

Regarding `Cc1ccc(-c2c(C)cc(O[C@H]3CCOC3)cc2C)cc1COc1ccc2c(c1)OC[C@H]2CC(=O)O` [Example 27, 2-((S)-6-((2′,4,6′-trimethyl-4′-(((S)-tetrahydrofuran-3-yl)oxy)biphenyl-3-yl)methoxy)-2,3-dihydrobenzofuran-3-yl)acetic acid], the EC50 in experiment [1] worked out at 53 nM.

Turning to `Cc1cc(O[C@@H]2CCOC2)c(F)c(C)c1-c1cccc(COc2ccc3c(c2)OC[C@H]3CC(=O)O)c1` [Example 28, 2-((S)-6-((3′-fluoro-2′,6′-dimethyl-4′-(((R)-tetrahydrofuran-3-yl)oxy)biphenyl-3-yl)methoxy)-2,3-dihydrobenzofuran-3-yl)acetic acid], the EC50 in experiment [1] worked out at 82 nM.

For `Cc1cc(O[C@H]2COC[C@@H]2O)cc(C)c1-c1cccc(COc2ccc3c(c2)OC[C@H]3CC(=O)O)c1` [Example 29, 2-((S)-6-((4′-(((3S,4S)-4-hydroxytetrahydrofuran-3-yl)oxy)-2′,6′-dimethylbiphenyl-3-yl)methoxy)-2,3-dihydrobenzofuran-3-yl)acetic acid], the EC50 in experiment [1] was found to be 41 nM. For the same molecule, in experiment [2] (single oral dose 20 mg/kg), the “AUC decrease rate %” value is 20.41%.

In the case of `Cc1cc(O[C@@H]2CCOC2)cc(C)c1-c1cccc(COc2ccc3c(c2)OC[C@@H]3CC(=O)O)c1` [Example 33, 2-((R)-6-((2′,6′-dimethyl-4′-(((R)-tetrahydrofuran-3-yl)oxy)biphenyl-3-yl)methoxy)-2,3-dihydrobenzofuran-3-yl)acetic acid], the EC50 in experiment [1] amounted to 113 nM.

Turning to `Cc1cc(O[C@H]2CCOC2)cc(C)c1-c1cccc(COc2ccc3c(c2)OC[C@@H]3CC(=O)O)c1` [Example 34, 2-((R)-6-((2′,6′-dimethyl-4′-(((S)-tetrahydrofuran-3-yl)oxy)biphenyl-3-yl)methoxy)-2,3-dihydrobenzofuran-3-yl)acetic acid], the EC50 in experiment [1] came to 113 nM.

The values are drawn from US9139548B2, “Polycyclic derivatives, preparation process and pharmaceutical use thereof” (Jiangsu Hengrui Medicine Co., Ltd., priority 2012, dated 2015).
